The values below come from publication PMC7961618, “Inhibitor Development against p7 Channel in Hepatitis C Virus” (Molecules, 2021).

pKd: −log10 of the molar value. Where two headings read alike, the source gives them in different places.

One data set deals with p7 (5a) protein (Hepatitis C virus genotype 5a (Hepacivirus hominis), UniProt O39928, A759S/C749A/C774T/C791S/T748G). Nature of the data set: NMR titration (2D 1H-15N TROSY-HSQC chemical shift perturbation) for Kd. The conditions noted are these: for pKd: read-out: Kd GT5a. The class given is binding.
Data set [1] deals with HCV (JFH1 strain with adaptive mutations). The class given is cell-based. As to conditions: for viral production kinetics versus mock control: 20 μM, supernatant at 2, 6, 12 and 24 h post-incubation; for IC50 against HCV compared with Rim: Huh7.5.1 cells, JFH1, 12 h.
The subject of a further data set is Huh7.5.1 cells. Nature of the data set: CellTiter-Glo cell viability and cytotoxicity assay. As to conditions: 12 h incubation.
Assay in data set [2]: as above
Procedure: (§1) (B) After incubation with each compound, the cell viability and cytotoxicity were detected by CellTiter-Glo® Luminescent Cell Viability Assay reagent (Promega GS7570, Madison, WI, USA). […] Data were presented as the percentage of mock treatment control. […] Two independent experiments were repeated showing similar results.
(§2) Cell viability and cytotoxicity were detected by CellTiter-Glo® Luminescent Cell Viability Assay reagent (Promega GS7570, Madison, WI, USA). Briefly, Huh7.5.1 cells were seeded at a density of 80,000 cells per well in 24-well microplates and allowed to attach and grow overnight. The next day, the cell-culture media with serially diluted compounds in 0.5% DMSO or mock were added to the cells. After 12 h of incubation, cells were collected and lysed for the cell cytotoxicity assay.
The conditions noted are these: human, Huh7.5.1 cells.

In the next data set the test system is HCV genotype 3. On the set-up: method as in PMID 27783808. As to conditions: cited from earlier work.
The test system of the next data set is HCV. On the set-up: method as in PMID 18828153. The conditions noted are these: cited from earlier work.
For the next data set, the system named is hepatoma cell lines. Also on record: method as in PMID 18828153. The conditions noted are these: cited from earlier work.
Setting [3] is: apparent Kd from chemical shift changes of Val7 or Leu8, 0.1 mM 15N-p7 (5a) in 20 mM DPC, 30 °C.

p7 (5a) protein, sequence (O39928 748-810 T748G/C749A/A759S/C774T/C791S): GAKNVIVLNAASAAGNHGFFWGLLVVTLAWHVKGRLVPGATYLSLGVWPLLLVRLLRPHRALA
Procedure for Huh7.5.1 cells: as §1, §2

As for `CCNC(C)C12CC3CC(CC(C3)C1)C2` (stereo not shown) [ARD1], the pKd at p7 (5a) protein (setting [3]) was 3.31.
Same read-out and setting: to `CCC(NC)C12CC3CC(CC(C3)C1)C2` (stereo not shown) [ARD2] belongs 3.48; to `CNC(CO)C12CC3CC(CC(C3)C1)C2` (stereo not shown) [ARD6], 3.46.
Take `CNC(C(N)=O)C12CC3CC(CC(C3)C1)C2` (stereo not shown) [ARD8]: the pKd on p7 (5a) protein (setting [3]) is 3.15.
As to `CNC(=O)C(NC)C12CC3CC(CC(C3)C1)C2` (stereo not shown) [ARD9], at p7 (5a) protein (setting [3]), the pKd was 3.38.
Still for that read-out and setting: in the case of `NC(C(F)F)C12CC3CC(CC(C3)C1)C2` (stereo not shown) [ARD71] it was 2.61; in that of `NC(CNC(=O)CCOCCOCCOCCC(=O)NCC(N)C12CC3CC(CC(C3)C1)C2)C12CC3CC(CC(C3)C1)C2` (stereo not shown) [ARD80], 3.99.
Same read-out and setting: to `NC(CNC(=O)CCOCCOCCOCCOCCC(=O)NCC(N)C12CC3CC(CC(C3)C1)C2)C12CC3CC(CC(C3)C1)C2` (stereo not shown) [ARD81] belongs 4.09; to `NC(CNC(=O)CCOCCOCCOCCOCCOCCOCCC(=O)NCC(N)C12CC3CC(CC(C3)C1)C2)C12CC3CC(CC(C3)C1)C2` (stereo not shown) [ARD83], 4.15; to `NC(CNC(=O)CCOCCOCCOCCOCCOCCOCCOCCC(=O)NCC(N)C12CC3CC(CC(C3)C1)C2)C12CC3CC(CC(C3)C1)C2` (stereo not shown) [ARD84], 4.24.
Consider `NC(CNC(=O)CCOCCC(=O)NCC(N)C12CC3CC(CC(C3)C1)C2)C12CC3CC(CC(C3)C1)C2` (stereo not shown) [ARD87], for which the pKd on p7 (5a) protein was 4.37. In data set [1], the “viral production kinetics versus mock control” value is on record as “suppress the viral production” and the “IC50 against HCV compared with Rim” value was “about two-fold lower than that of Rim”. In addition, the “cytotoxicity compared with Rim” value in the data set with Huh7.5.1 cells is given as “significantly higher than Rim”.
In the case of `Oc1ccc(CNC23CC4CC(CC(C4)C2)C3)c(O)c1` [ARD89], on p7 (5a) protein (setting [3]), the pKd is 3.95.
In the case of `OCC1(CNCc2cc(-c3ccccc3)on2)C2CC3CC(C2)CC1C3` (stereo not shown) [ARD98], at p7 (5a) protein (setting [3]), the pKd is 3.99.
With `Cc1cc(CNCC2(CO)C3CC4CC(C3)CC2C4)ccn1` (stereo not shown) [ARD99], the pKd on p7 (5a) protein (setting [3]) was 3.07.
In the case of `Cc1ccc(CNCC2(CO)C3CC4CC(C3)CC2C4)cn1` (stereo not shown) [ARD100], on p7 (5a) protein (setting [3]), the pKd was 3.97.
For `OCC1(CNCc2cc(C3CC3)on2)C2CC3CC(C2)CC1C3` (stereo not shown) [ARD101], the pKd on p7 (5a) protein (setting [3]) was 3.98.
As to `CC1(NCc2nnc(-c3cc(O)cc(O)c3)[nH]2)C2CC3CC(C2)CC1C3` (stereo not shown) [ARD112], the pKd at p7 (5a) protein (setting [3]) is 5.30. The “binding strength relative to the best dimeric compound ARD87” value on p7 (5a) protein (from NMR Kd values, p7 (5a)) was ~ 10 fold. In addition, in data set [1], the “viral production kinetics versus mock control” value is “suppress the viral production” and the “IC50 against HCV compared with Rim” value is on record as “about two-fold lower than that of Rim”. In data set [2], this compound displayed a CC50 at 12 h above 100 µM. The “cytotoxicity compared with Rim” value in the data set on Huh7.5.1 cells is “comparable to Rim”.
Consider `NC12CC3CC(CC(C3)C1)C2` [Amantadine], for which the “inhibition of genotype 3” value in the data set on HCV genotype 3 is reported as “could not inhibit genotype 3”.
On to `CC(N)C12CC3CC(CC(C3)C1)C2` (stereo not shown) [Rimantadine, reference compound], for which, on p7 (5a) protein, the pKd was 4.01. In addition, in data set [1], the “viral production kinetics versus mock control” value is “suppress the viral production”. Moreover, the anti-HCV activity entry in the data set on HCV is “moderate anti-HCV activity”. Besides, the “cytotoxicity against hepatoma cell lines” value with hepatoma cell lines is “no significant cytotoxicity”. In data set [2], the CC50 at 12 h is above 100 µM.
